# Target: T1, TACE (Homo sapiens, UniProt P78536)
# T1 construct: made in house; host or cells: mammalian cells or insect cells
# Test: TACE inhibition experiment (in vitro)
# Format: biochemical
# Settings: not given
# T1 sequence (P78536 215-824): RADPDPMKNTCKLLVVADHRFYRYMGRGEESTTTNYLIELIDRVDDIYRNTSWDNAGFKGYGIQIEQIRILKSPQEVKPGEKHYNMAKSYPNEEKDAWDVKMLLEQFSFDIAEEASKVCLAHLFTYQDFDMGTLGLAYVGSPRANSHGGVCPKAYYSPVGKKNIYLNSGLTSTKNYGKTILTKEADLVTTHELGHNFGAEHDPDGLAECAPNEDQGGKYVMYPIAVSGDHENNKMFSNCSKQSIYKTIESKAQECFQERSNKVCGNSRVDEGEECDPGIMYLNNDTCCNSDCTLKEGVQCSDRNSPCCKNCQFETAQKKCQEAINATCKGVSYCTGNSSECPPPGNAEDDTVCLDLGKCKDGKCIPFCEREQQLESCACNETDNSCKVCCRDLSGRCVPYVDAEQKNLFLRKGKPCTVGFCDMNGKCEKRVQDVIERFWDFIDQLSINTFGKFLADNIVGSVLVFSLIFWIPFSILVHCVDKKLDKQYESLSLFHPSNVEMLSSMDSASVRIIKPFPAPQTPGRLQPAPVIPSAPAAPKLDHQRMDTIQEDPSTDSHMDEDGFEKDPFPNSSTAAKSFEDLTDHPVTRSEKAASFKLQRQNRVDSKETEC
row,Compound,IC50 [µM]
1,Cc1cc(Cl)cc(COc2ccc(S(=O)(=O)CC(CC3CCC4(CC3)OCCO4)N(O)C=O)cc2)c1 (stereo not shown) [Example I-99],1.1
2,Cc1cc(Cl)cc(COc2ccc(S(=O)(=O)CC(CC3CCC(=O)CC3)N(O)C=O)cc2)c1 (stereo not shown) [Example I-101],0.12
3,Cc1cc(Cl)cc(COc2ccc(S(=O)(=O)CC(C=C3CCC(=NO)CC3)N(O)C=O)cc2)c1 (stereo not shown) [Example I-102],0.13

# More lines, in order of falling IC50, values ahead:
row,IC50 [µM],Compound
1,0.2,Cc1cc(Cl)cc(COc2ccc(S(=O)(=O)CC(CC3CCC(=NO)CC3)N(O)C=O)cc2)c1 (stereo not shown) [Example I-100]
2,0.08,Cc1cc(Cl)cc(COc2ccc(S(=O)(=O)CC(C3CCC4(CC3)OCCO4)N(O)C=O)cc2)c1 (stereo not shown) [Example I-98]

# Target: T2, Human MMP1 (Homo sapiens, UniProt P03956)
# T2 construct: purchased Calbiochem 444208
# T2 sequence (P03956 100-469): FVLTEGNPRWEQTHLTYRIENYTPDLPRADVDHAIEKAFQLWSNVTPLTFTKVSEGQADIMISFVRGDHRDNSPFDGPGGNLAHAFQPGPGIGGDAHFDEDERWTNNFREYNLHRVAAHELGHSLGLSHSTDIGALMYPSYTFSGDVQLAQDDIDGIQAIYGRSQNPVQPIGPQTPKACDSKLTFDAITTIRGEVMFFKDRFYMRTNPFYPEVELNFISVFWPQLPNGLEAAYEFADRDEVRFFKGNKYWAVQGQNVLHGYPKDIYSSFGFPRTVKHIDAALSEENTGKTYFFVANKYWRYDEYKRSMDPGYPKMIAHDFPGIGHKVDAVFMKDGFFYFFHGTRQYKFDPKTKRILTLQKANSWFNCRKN
# Test: MMP1 inhibition experiment
# Format: biochemical
# Settings: read-out: IC50 value MMP-1
row,Compound,IC50 [µM]
1,Cc1cc(Cl)cc(COc2ccc(S(=O)(=O)CC(CC3CCC4(CC3)OCCO4)N(O)C=O)cc2)c1 (stereo not shown) [Example I-99],40
2,Cc1cc(Cl)cc(COc2ccc(S(=O)(=O)CC(CC3CCC(=O)CC3)N(O)C=O)cc2)c1 (stereo not shown) [Example I-101],40
3,Cc1cc(Cl)cc(COc2ccc(S(=O)(=O)CC(C=C3CCC(=NO)CC3)N(O)C=O)cc2)c1 (stereo not shown) [Example I-102],80

# Now from value to molecule:
row,IC50 [µM],Compound
1,43,Cc1cc(Cl)cc(COc2ccc(S(=O)(=O)CC(CC3CCC(=NO)CC3)N(O)C=O)cc2)c1 (stereo not shown) [Example I-100]
2,50,Cc1cc(Cl)cc(COc2ccc(S(=O)(=O)CC(C3CCC4(CC3)OCCO4)N(O)C=O)cc2)c1 (stereo not shown) [Example I-98]

# Target: T3, Human MMP2 (Homo sapiens, UniProt P08253)
# T3 construct: purchased Calbiochem 444213
# T3 sequence (P08253 110-660): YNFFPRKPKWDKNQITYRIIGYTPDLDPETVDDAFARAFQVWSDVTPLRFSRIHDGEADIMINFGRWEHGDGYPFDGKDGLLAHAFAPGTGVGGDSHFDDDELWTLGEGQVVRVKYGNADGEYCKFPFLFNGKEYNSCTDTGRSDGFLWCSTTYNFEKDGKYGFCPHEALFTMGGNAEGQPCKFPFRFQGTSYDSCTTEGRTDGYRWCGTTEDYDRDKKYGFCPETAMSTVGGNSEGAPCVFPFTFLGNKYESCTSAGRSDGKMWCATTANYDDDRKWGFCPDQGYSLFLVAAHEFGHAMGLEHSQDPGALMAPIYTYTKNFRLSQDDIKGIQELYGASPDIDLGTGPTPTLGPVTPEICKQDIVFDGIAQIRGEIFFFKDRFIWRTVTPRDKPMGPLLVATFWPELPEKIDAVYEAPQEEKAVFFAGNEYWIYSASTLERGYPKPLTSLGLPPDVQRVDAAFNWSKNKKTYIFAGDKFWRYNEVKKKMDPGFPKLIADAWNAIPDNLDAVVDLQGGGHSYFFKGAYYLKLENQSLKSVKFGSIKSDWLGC
# Test: MMP2 inhibition experiment
# Format: biochemical
# Settings: concentration required for 50% inhibition of enzyme activity; read-out: IC50 value MMP-2
row,Compound,IC50 [µM]
1,Cc1cc(Cl)cc(COc2ccc(S(=O)(=O)CC(CC3CCC4(CC3)OCCO4)N(O)C=O)cc2)c1 (stereo not shown) [Example I-99],5
2,Cc1cc(Cl)cc(COc2ccc(S(=O)(=O)CC(CC3CCC(=O)CC3)N(O)C=O)cc2)c1 (stereo not shown) [Example I-101],2.3
3,Cc1cc(Cl)cc(COc2ccc(S(=O)(=O)CC(C=C3CCC(=NO)CC3)N(O)C=O)cc2)c1 (stereo not shown) [Example I-102],20

# The next lines start with the values.
row,IC50 [µM],Compound
1,4,Cc1cc(Cl)cc(COc2ccc(S(=O)(=O)CC(CC3CCC(=NO)CC3)N(O)C=O)cc2)c1 (stereo not shown) [Example I-100]
2,2,Cc1cc(Cl)cc(COc2ccc(S(=O)(=O)CC(C3CCC4(CC3)OCCO4)N(O)C=O)cc2)c1 (stereo not shown) [Example I-98]

# Target: T4, Human MMP3 (Homo sapiens, UniProt P08254)
# T4 construct: purchased Calbiochem 444217
# T4 sequence (P08254 100-272 limits assumed): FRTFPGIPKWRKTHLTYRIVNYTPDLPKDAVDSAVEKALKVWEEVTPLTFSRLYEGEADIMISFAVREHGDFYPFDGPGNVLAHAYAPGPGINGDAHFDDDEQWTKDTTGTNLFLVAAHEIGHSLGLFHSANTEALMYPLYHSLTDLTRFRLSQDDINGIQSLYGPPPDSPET
# Test: MMP3 inhibition experiment
# Format: biochemical
# Settings: concentration required for 50% inhibition of enzyme activity; read-out: IC50 value MMP-3
# Procedure: (§1) MMP inhibition experiment may be carried out using a fluorescent synthetic substrate according to, for example, the methods of Bickett et al. (D. Mark Bickett et al., Anal. Biochem., 1993, 212, 58-64) and Nagase et al. (H. Nagase et al., J. Biol. Chem., 1994, 269, 20952-20957). The methods of inhibition experiments carried out for various MMPs are described below.
# Human MMP3 (Calbiochem #444217) in 90 μL (5 ng) prepared in the assay buffer A was added to 90 μL of 20 μM fluorescent substrate NFF-3(MOCAc-Arg-Pro-Lys-Pro-Val-Glu-Nva-Trp-Arg-Lys(Dnp)-NH2, Peptide Institute, Inc., #3168-v) prepared in the assay buffer B, followed by reaction for 5 hours at 37° C.
row,Compound,IC50 [µM]
1,Cc1cc(Cl)cc(COc2ccc(S(=O)(=O)CC(CC3CCC4(CC3)OCCO4)N(O)C=O)cc2)c1 (stereo not shown) [Example I-99],6
2,Cc1cc(Cl)cc(COc2ccc(S(=O)(=O)CC(CC3CCC(=O)CC3)N(O)C=O)cc2)c1 (stereo not shown) [Example I-101],7
3,Cc1cc(Cl)cc(COc2ccc(S(=O)(=O)CC(C=C3CCC(=NO)CC3)N(O)C=O)cc2)c1 (stereo not shown) [Example I-102],25

# Now from value to molecule:
row,IC50 [µM],Compound
1,7,Cc1cc(Cl)cc(COc2ccc(S(=O)(=O)CC(CC3CCC(=NO)CC3)N(O)C=O)cc2)c1 (stereo not shown) [Example I-100]
2,1.2,Cc1cc(Cl)cc(COc2ccc(S(=O)(=O)CC(C3CCC4(CC3)OCCO4)N(O)C=O)cc2)c1 (stereo not shown) [Example I-98]

# Target: T5, Human MMP9 (Homo sapiens, UniProt P14780)
# T5 construct: purchased Calbiochem 444231
# T5 sequence (P14780 107-707 limits assumed): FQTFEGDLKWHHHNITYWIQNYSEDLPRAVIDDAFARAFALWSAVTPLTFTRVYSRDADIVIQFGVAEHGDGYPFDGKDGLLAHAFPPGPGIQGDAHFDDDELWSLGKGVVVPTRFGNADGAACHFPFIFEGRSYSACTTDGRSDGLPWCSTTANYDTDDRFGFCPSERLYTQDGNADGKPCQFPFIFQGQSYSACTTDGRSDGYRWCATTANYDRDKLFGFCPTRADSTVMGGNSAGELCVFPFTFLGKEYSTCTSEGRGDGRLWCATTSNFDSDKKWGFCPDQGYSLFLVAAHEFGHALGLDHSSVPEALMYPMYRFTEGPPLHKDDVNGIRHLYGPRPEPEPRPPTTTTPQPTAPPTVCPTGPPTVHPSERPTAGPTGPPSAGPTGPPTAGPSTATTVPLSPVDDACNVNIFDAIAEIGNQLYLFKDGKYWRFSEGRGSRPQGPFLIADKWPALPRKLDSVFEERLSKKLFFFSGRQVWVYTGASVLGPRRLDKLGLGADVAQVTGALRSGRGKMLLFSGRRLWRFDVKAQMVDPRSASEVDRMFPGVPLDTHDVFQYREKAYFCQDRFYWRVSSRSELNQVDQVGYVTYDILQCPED
# Test: MMP9 inhibition experiment
# Format: biochemical
# Settings: read-out: IC50 value MMP-9
row,Compound,IC50 [µM]
1,Cc1cc(Cl)cc(COc2ccc(S(=O)(=O)CC(CC3CCC4(CC3)OCCO4)N(O)C=O)cc2)c1 (stereo not shown) [Example I-99],20
2,Cc1cc(Cl)cc(COc2ccc(S(=O)(=O)CC(CC3CCC(=O)CC3)N(O)C=O)cc2)c1 (stereo not shown) [Example I-101],20
3,Cc1cc(Cl)cc(COc2ccc(S(=O)(=O)CC(C=C3CCC(=NO)CC3)N(O)C=O)cc2)c1 (stereo not shown) [Example I-102],40

# Now from value to molecule:
row,IC50 [µM],Compound
1,23,Cc1cc(Cl)cc(COc2ccc(S(=O)(=O)CC(CC3CCC(=NO)CC3)N(O)C=O)cc2)c1 (stereo not shown) [Example I-100]
2,20,Cc1cc(Cl)cc(COc2ccc(S(=O)(=O)CC(C3CCC4(CC3)OCCO4)N(O)C=O)cc2)c1 (stereo not shown) [Example I-98]

# Target: T6, Human MMP13 (Homo sapiens, UniProt P45452)
# T6 construct: purchased Chemicon CC068
# Test: MMP13 inhibition experiment
# Format: biochemical
# Settings: concentration required for 50% inhibition of enzyme activity; read-out: IC50 value MMP-13
row,Compound,IC50 [µM]
1,Cc1cc(Cl)cc(COc2ccc(S(=O)(=O)CC(CC3CCC4(CC3)OCCO4)N(O)C=O)cc2)c1 (stereo not shown) [Example I-99],18
2,Cc1cc(Cl)cc(COc2ccc(S(=O)(=O)CC(CC3CCC(=O)CC3)N(O)C=O)cc2)c1 (stereo not shown) [Example I-101],3
3,Cc1cc(Cl)cc(COc2ccc(S(=O)(=O)CC(C=C3CCC(=NO)CC3)N(O)C=O)cc2)c1 (stereo not shown) [Example I-102],16

# Further lines, results first:
row,IC50 [µM],Compound
1,6,Cc1cc(Cl)cc(COc2ccc(S(=O)(=O)CC(CC3CCC(=NO)CC3)N(O)C=O)cc2)c1 (stereo not shown) [Example I-100]
2,2,Cc1cc(Cl)cc(COc2ccc(S(=O)(=O)CC(C3CCC4(CC3)OCCO4)N(O)C=O)cc2)c1 (stereo not shown) [Example I-98]

# Target: T7, Human MMP14 (Homo sapiens, UniProt P50281)
# T7 construct: purchased Biogenesis or Calbiochem 5980-1461 or 475935
# Test: MMP14 inhibition experiment
# Format: biochemical
# Settings: concentration required for 50% inhibition of enzyme activity; read-out: IC50 value MMP-14
# Procedure: as §1
# Human MMP14 (Biogenesis #5980-1461 or Calbiochem #475935) in amount of 90 μL (4 ng) prepared in the assay buffer A was added to 90 μL of 20 μM fluorescent substrate (Dnp-Pro-Cha-Gly-Cys(Me)-His-Ala-Lys(Nma)-NH2) prepared in the assay buffer B, followed by reaction for 5 hours at 37° C.
row,Compound,IC50 [µM]
1,Cc1cc(Cl)cc(COc2ccc(S(=O)(=O)CC(CC3CCC4(CC3)OCCO4)N(O)C=O)cc2)c1 (stereo not shown) [Example I-99],25
2,Cc1cc(Cl)cc(COc2ccc(S(=O)(=O)CC(CC3CCC(=O)CC3)N(O)C=O)cc2)c1 (stereo not shown) [Example I-101],20
3,Cc1cc(Cl)cc(COc2ccc(S(=O)(=O)CC(C=C3CCC(=NO)CC3)N(O)C=O)cc2)c1 (stereo not shown) [Example I-102],33

# The remaining lines, values ahead:
row,IC50 [µM],Compound
1,25,Cc1cc(Cl)cc(COc2ccc(S(=O)(=O)CC(CC3CCC(=NO)CC3)N(O)C=O)cc2)c1 (stereo not shown) [Example I-100]
2,7,Cc1cc(Cl)cc(COc2ccc(S(=O)(=O)CC(C3CCC4(CC3)OCCO4)N(O)C=O)cc2)c1 (stereo not shown) [Example I-98]

# Target: T8, Human MMP17 (Homo sapiens, UniProt Q9ULZ9)
# T8 construct: purchased Calbiochem 475940
# T8 sequence (Q9ULZ9 126-300 limits assumed): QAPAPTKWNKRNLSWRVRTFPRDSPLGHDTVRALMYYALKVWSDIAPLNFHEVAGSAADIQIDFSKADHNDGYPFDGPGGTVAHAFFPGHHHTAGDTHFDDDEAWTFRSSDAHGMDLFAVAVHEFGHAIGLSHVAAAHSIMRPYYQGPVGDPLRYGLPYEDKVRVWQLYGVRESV
# Test: MMP17 inhibition test
# Format: biochemical
# Settings: concentration required for 50% inhibition of enzyme activity; read-out: IC50 value MMP-17
row,Compound,IC50 [µM]
1,Cc1cc(Cl)cc(COc2ccc(S(=O)(=O)CC(CC3CCC4(CC3)OCCO4)N(O)C=O)cc2)c1 (stereo not shown) [Example I-99],13
2,Cc1cc(Cl)cc(COc2ccc(S(=O)(=O)CC(CC3CCC(=O)CC3)N(O)C=O)cc2)c1 (stereo not shown) [Example I-101],5
3,Cc1cc(Cl)cc(COc2ccc(S(=O)(=O)CC(C=C3CCC(=NO)CC3)N(O)C=O)cc2)c1 (stereo not shown) [Example I-102],30

# Continued, values first:
row,IC50 [µM],Compound
1,7,Cc1cc(Cl)cc(COc2ccc(S(=O)(=O)CC(CC3CCC(=NO)CC3)N(O)C=O)cc2)c1 (stereo not shown) [Example I-100]
2,1.6,Cc1cc(Cl)cc(COc2ccc(S(=O)(=O)CC(C3CCC4(CC3)OCCO4)N(O)C=O)cc2)c1 (stereo not shown) [Example I-98]

# Source: US7511144B2, “Reverse hydroxamic acid derivatives” (Kaken Pharmaceutical Co., Ltd., priority 2001, dated 2009)
